Patent publication US20070128217A1 (priority 2003, published 2007)

Key:
[1] = tested on: recombinant human anti-SARS-CoV antibody 03-018; type: binding; set-up: Binding of antibody 03-018 to linear peptides of the N protein of SARS-CoV Urbani / Binding of antibody 03-018 to looped/cyclic peptides of the N protein of SARS-CoV Urbani: unit not given here
[2] = tested on: rabbit serum obtained by immunizing a rabbit with the SARS-CoV strain Frankfurt 1; type: binding; set-up: Binding of a rabbit serum to linear peptides / Binding of a rabbit serum to looped peptides / Rabbit serum linear peptides / Rabbit serum looped peptides / Binding of a rabbit serum to linear peptides of protein N of SARS-CoV Urbani (Rabbit serum linear peptides) / Binding of a rabbit serum to looped/cyclic peptides of protein N of SARS-CoV Urbani (Rabbit serum looped peptides): unit not given here
[3] = tested on: control sera (pooled serum of ten healthy LUMC hospital workers; commercial negative donor pooled serum from the Dutch bloodbank); type: binding, human; set-up: Binding of Control serum LUMC to linear peptides / Binding of Control serum Blood-bank to linear peptides / Binding of Control serum LUMC to looped peptides / Binding of Control Serum Blood-Bank to Looped peptides / Binding of Control serum LUMC to linear peptides of the protein M of SARS-CoV Urbani / Binding of Control serum Blood-bank to linear peptides of the protein M of SARS-CoV Urbani / Binding of Control serum LUMC to looped peptides of the protein M of SARS-CoV Urbani / Binding of Control Serum Blood-Bank to Looped peptides of the protein M of SARS-CoV Urbani: unit not given here
[4] = tested on: antibodies in sera from SARS patients (sera 1a, 1b, 2, 6, 37, 62, London, SARS-yellow, SARS-green); type: binding, human; set-up: Binding of serum 6 to linear peptides of protein X1 of SARS-CoV Urbani / Binding of serum 37 to linear peptides of protein X1 of SARS-CoV Urbani / Binding of serum 6 to looped/cyclic peptide (PEPSCAN-ELISA) / Binding of serum 37 to looped/cyclic peptide (PEPSCAN-ELISA) / Binding of serum 37 to looped/cyclic peptides of protein X1 of SARS-CoV Urbani / Binding of serum 6 to linear peptides of protein X2 / Binding of serum 37 to linear peptides of protein X2 / Binding of serum 37 to looped/cyclic peptides of protein X2 of SARS-CoV Urbani / Binding of serum 6 to linear peptides of protein M of SARS-CoV Urbani / Binding of serum 37 to linear peptides of protein M of SARS-CoV Urbani / Binding of serum 6 to looped/cyclic peptides of protein M of SARS-CoV Urbani / Binding of serum 37 to looped/cyclic peptides of protein M of SARS-CoV Urbani / Binding of serum 6 to linear peptides of protein X3 of SARS-CoV Urbani / Binding of serum 37 to linear peptides of protein X3 of SARS-CoV Urbani / Binding of serum 37 to looped/cyclic peptides of protein X3 of SARS-CoV Urbani / Binding of serum 6 to linear peptides of protein X4 of SARS-CoV Urbani / Binding of serum 37 to linear peptides of protein X4 of SARS-CoV Urbani / Binding of serum 37 to looped/cyclic peptides of protein X4 of SARS-CoV Urbani / Binding of serum 6 to linear peptides of protein X5 of SARS-CoV Urbani / Binding of serum 37 to linear peptides of protein X5 of SARS-CoV Urbani / Binding of serum 37 to looped/cyclic peptides of protein X5 of SARS-CoV Urbani / Binding of serum 6 to linear peptides of protein N of SARS-CoV Urbani / Binding of serum 37 to linear peptides of protein N of SARS-CoV Urbani / Binding of serum 6 to linear peptide (PEPSCAN-ELISA) / Binding of serum 1a to looped/cyclic peptides of protein N of SARS-CoV Urbani / Binding of serum 1b to looped/cyclic peptides of protein N of SARS-CoV Urbani / Binding of serum 2 to looped/cyclic peptides of protein N of SARS-CoV Urbani / Binding of serum 6 to looped/cyclic peptides of protein N of SARS-CoV Urbani / Binding of serum 37 to looped/cyclic peptides of protein N of SARS-CoV Urbani / Binding of serum 62 to looped/cyclic peptides of protein N of SARS-CoV Urbani / Binding of serum London to looped/cyclic peptides of protein N of SARS-CoV Urbani / Binding of serum SARS-green to looped/cyclic peptides of protein N of SARS-CoV Urbani: unit not given here

Sequence	Binding of antibody 03-018 to linear peptides of the N protein of SARS-CoV Urbani [1]	Binding of antibody 03-018 to looped/cyclic peptides of the N protein of SARS-CoV Urbani [1]	Binding of a rabbit serum to linear peptides of protein N of SARS-CoV Urbani (Rabbit serum linear peptides) [2]	Binding of a rabbit serum to looped/cyclic peptides of protein N of SARS-CoV Urbani (Rabbit serum looped peptides) [2]	Binding of serum 1a to linear peptides of protein N of SARS-CoV Urbani [4]	Binding of serum 1a to looped/cyclic peptides of protein N of SARS-CoV Urbani [4]	Binding of serum 1b to linear peptides of protein N of SARS-CoV Urbani [4]	Binding of serum 1b to looped/cyclic peptides of protein N of SARS-CoV Urbani [4]	Binding of serum 2 to linear peptides of protein N of SARS-CoV Urbani [4]	Binding of serum 2 to looped/cyclic peptides of protein N of SARS-CoV Urbani [4]	Binding of serum 6 to linear peptides of protein N of SARS-CoV Urbani [4]	Binding of serum 6 to looped/cyclic peptides of protein N of SARS-CoV Urbani [4]	Binding of serum 37 to linear peptides of protein N of SARS-CoV Urbani [4]	Binding of serum 37 to looped/cyclic peptides of protein N of SARS-CoV Urbani [4]	Binding of serum 62 to linear peptides of protein N of SARS-CoV Urbani [4]	Binding of serum 62 to looped/cyclic peptides of protein N of SARS-CoV Urbani [4]	Binding of serum London to linear peptides of protein N of SARS-CoV Urbani [4]	Binding of serum London to looped/cyclic peptides of protein N of SARS-CoV Urbani [4]	Binding of serum SARS-green to looped/cyclic peptides of protein N of SARS-CoV Urbani [4]	Binding of serum SARS-yellow to looped/cyclic peptides of protein N of SARS-CoV Urbani [4]	other results
DMDDFSRQLQNSMSG	0.1	0.2	0.2	0.4	0.2	0.3	0.2	0.1	0.2	0.3	0.3	0.0	0.8	0.4	0.7	0.2	0.7	0.2	0.0	0.2	Control Serum Blood-Bank Looped peptides [3]: 0.4; Control serum Blood-bank linear peptides [3]: 0.8; Control serum LUMC linear peptides [3]: 0.6; Control serum LUMC looped peptides [3]: 0.3; Binding of serum SARS-green to linear peptides of protein N of SARS-CoV Urbani [4]: 0.3; Binding of serum SARS-yellow to linear peptides of protein N of SARS-CoV Urbani [4]: 0.7
DNGPQSNQRSAPRIT	0.2	0.3	0.1	0.3	0.2	0.2	0.1	0.1	0.3	0.1	0.2	0.2	0.6	0.5	0.5	0.3	0.4	0.2	0.2	0.1	Binding of Control Serum Blood-Bank to Looped peptides [3]: 0.5; Binding of Control serum Blood-bank to linear peptides [3]: 0.7; Binding of Control serum LUMC to linear peptides [3]: 0.7; Binding of Control serum LUMC to looped peptides [3]: 0.4; Binding of serum SARS-green to linear peptides of protein N of SARS-CoV Urbani [4]: 0.4; Binding of serum SARS-yellow to linear peptides of protein N of SARS-CoV Urbani [4]: 0.5
DQDLIRQGTDYKHWP	0.1	0.2	0.1	0.1	–	0.2	–	0.1	–	0.3	–	0.1	–	0.4	–	0.3	–	0.3	0.1	0.1	Binding of Control Serum Blood-Bank to Looped peptides [3]: 0.4; Binding of Control serum Blood-bank to linear peptides [3]: 0.8; Binding of Control serum LUMC to linear peptides [3]: 0.7; Binding of Control serum LUMC to looped peptides [3]: 0.4; Binding of serum 1a to linear peptide (PEPSCAN-ELISA) [4]: 0.3; Binding of serum 1b to linear peptide (PEPSCAN-ELISA) [4]: 0.1; Binding of serum 2 to linear peptide (PEPSCAN-ELISA) [4]: 0.2; Binding of serum 6 to linear peptide (PEPSCAN-ELISA) [4]: 0.2; Binding of serum 37 to linear peptide (PEPSCAN-ELISA) [4]: 0.7; Binding of serum 62 to linear peptide (PEPSCAN-ELISA) [4]: 0.6; Binding of serum London to linear peptide (PEPSCAN-ELISA) [4]: 0.8; Binding of serum SARS-green to linear peptide (PEPSCAN-ELISA) [4]: 0.5; Binding of serum SARS-yellow to linear peptide (PEPSCAN-ELISA) [4]: 0.7
